Test results published in patent US4826973A, “Delta form of aztreonam and preparation thereof” (priority 1985, dated 1989).

Columns and labels:
[1] = Intrinsic dissolution rate of crystalline forms; format: physicochemical; conditions: TABLE II, crystalline forms of aztreonam
[2] = Physical and processing (bulk) properties of crystalline forms; format: physicochemical; conditions: TABLE II, crystalline forms of aztreonam
[3] = as described for Ser. No. 282,636; cited from earlier work
[4] = compared with α-form or simple salts of the compound; storage prior to conversion to β-form

Structure (SMILES) | Intrinsic Dissolution Rate [1] | Density [2] | Flowability [2] | Surface Area [2] | Hygroscopicity (background, earlier application) [3] | Shelf life [4]
C[C@H]1[C@H](NC(=O)/C(=N\OC(C)(C)C(=O)O)c2csc(N)n2)C(=O)N1S(=O)(=O)O [α-Form, [3S-[3α(Z)4β]]-3-[[(2-amino-4-thiazolyl)[(1-carboxy-1-methylethoxy)imino]acetyl]amino]-4-methyl-2-oxo-1-azetidinesulfonic acid] | slow | low | poor | high | – | –
C[C@H]1[C@H](NC(=O)/C(=N\OC(C)(C)C(=O)O)c2csc(N)n2)C(=O)N1S(=O)(=O)O [β-Form, [3S-[3α(Z),4β]]-3-[[(2-amino-4-thiazolyl)-[(1-carboxy-1-methylethoxy)imino]acetyl]amino]-4-methyl-2-oxo-1-azetidinesulfonic acid] | fast | high | good | low | substantially non-hygroscopic | –
C[C@H]1[C@H](NC(=O)/C(=N\OC(C)(C)C(=O)O)c2csc(N)n2)C(=O)N1S(=O)(=O)O [γ-Form] | fast | low | poor | high | – | –
C[C@H]1[C@H](NC(=O)/C(=N\OC(C)(C)C(=O)O)c2csc(N)n2)C(=O)N1S(=O)(=O)O [δ-Form, [3S-[3α(Z),4β]]-3-[[(2-amino-4-thiazolyl)[(1-carboxy-1-methylethoxy)imino]acetyl]amino]-4-methyl-2-oxo-1-azetidinesulfonic acid] | fast | high | good | low | – | greater than that of the α-form, or for that matter simple salts of the compound
